Measurements taken from publication PMC12858405, “Ideal efficacy photoswitching for chromocontrol of TRPC4/5 channel functions in live tissues” (Nature Chemical Biology, 2026).

Target: T1, TRPC5-SYFP2 (Homo sapiens, UniProt Q9UL62)
T1 construct: expressed in transfected cells; host or cells: HEK 293 (ATCC CRL 1573), transiently transfected (jetPRIME)
T1 sequence (Q9UL62 1-973): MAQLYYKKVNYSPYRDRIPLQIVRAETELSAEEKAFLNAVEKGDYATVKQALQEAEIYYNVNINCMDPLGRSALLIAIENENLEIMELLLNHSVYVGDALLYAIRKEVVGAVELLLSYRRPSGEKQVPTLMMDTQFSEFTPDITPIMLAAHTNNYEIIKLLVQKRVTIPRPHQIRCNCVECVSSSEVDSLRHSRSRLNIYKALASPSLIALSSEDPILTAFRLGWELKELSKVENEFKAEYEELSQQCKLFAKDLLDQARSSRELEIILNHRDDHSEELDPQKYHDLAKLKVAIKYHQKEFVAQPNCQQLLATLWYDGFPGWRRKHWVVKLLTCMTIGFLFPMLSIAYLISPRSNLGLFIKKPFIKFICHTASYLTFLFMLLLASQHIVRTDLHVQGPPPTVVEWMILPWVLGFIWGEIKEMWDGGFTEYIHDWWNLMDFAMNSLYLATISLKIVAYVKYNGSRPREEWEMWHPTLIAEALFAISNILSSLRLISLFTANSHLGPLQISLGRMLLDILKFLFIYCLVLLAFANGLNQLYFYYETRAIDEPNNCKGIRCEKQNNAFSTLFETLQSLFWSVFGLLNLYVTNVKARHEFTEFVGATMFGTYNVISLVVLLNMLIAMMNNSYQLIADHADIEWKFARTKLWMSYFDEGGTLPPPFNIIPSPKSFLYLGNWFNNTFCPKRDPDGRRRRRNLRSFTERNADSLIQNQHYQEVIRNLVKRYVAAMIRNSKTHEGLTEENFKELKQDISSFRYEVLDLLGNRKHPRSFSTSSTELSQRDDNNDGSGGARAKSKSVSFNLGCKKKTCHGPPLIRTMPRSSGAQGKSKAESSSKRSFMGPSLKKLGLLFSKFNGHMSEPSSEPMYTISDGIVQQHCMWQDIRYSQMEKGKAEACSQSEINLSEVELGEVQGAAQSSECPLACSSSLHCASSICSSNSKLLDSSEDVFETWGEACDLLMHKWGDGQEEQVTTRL
Test: Fura-2 [Ca2+]i recordings, HEK 293 transiently expressing TRPC5-SYFP2
Format: cell-based
Conditions: 10-1000 nM; compound plate illuminated at 380 nm; EA 100 nM as maximum
Source text: Müller, Niemeyer, et al., Schaefer & Thorn-Seshold 2025: Ideal Efficacy Photoswitching of TRPC4/5 in Tissue […]
1.4.4 Differences and selectivity between TRPC5 and TRPC4?
AM237 activates TRPC5 but inhibits EA mediated activation of TRPC4; Pico145 inhibits both TRPC4 and TRPC5. Thus, somewhat naively, it could be argued that it is the para substituent here which affects both the efficacy mode and the selectivity for TRPC4 and/or TRPC5.
Intriguingly, Z-AzPico activates TRPC4 and TRPC5 with low nanomolar potency whereas Z-AzHC only activates TRPC5 but not TRPC4. Therefore, the meta substituent is now responsible for the selectivity in this case. The cryo-EM structures of Pico145 and HC-070 in complex with TRPC5 indicated the same binding site but the southern phenyl ring bearing the OCF3/Cl group is flipped and pointing in opposite directions.
Z isomers, i.e. Z-buried vs. E-projected. Additionally, both E-AzPico and E-AzHC inhibit EA […]
It is not surprising that both ligands bind to either protein because there is a high sequence similarity among the TRPC family in the identified binding pocket for Pico145 /HC-070, and in the binding region, human TRPC4/5 differ only by a single amino acid (TRPC5: V579, TRPC4: I579). We […]
the result of differences in this residue. […]
Intracellular calcium ([Ca2+]i) was measured using the ratiometric Ca2+ dye Fura-2. […]

Row | Structure (SMILES) | Effect on [Ca2+]i, TRPC5
1 | Cn1c(=O)n(CCCO)c(=O)c2c1nc(Oc1ccc(Cl)c(OC(F)(F)F)c1)n2Cc1ccc(Cl)cc1 [AM237, reference compound] | partial agonists
2 | Cn1c(=O)n(CCCO)c(=O)c2c1nc(Oc1ccc(/N=N\c3ccccc3)c(Cl)c1)n2Cc1ccc(Cl)cc1 [Z*-AzHC] | partial agonists
